Data as given in ChEMBL document CHEMBL5523720, “Identification of novel GSPT1 degraders by virtual screening and bioassay” (Eur J Med Chem, 2024).
pIC50: −log10 of the molar value. The source made the active and inactive calls. No cut-off for these calls is given here.

Tests used:
[1] = test system: U-266; test: Antiproliferative activity against human U-266 cells incubated for 48 hrs by MTS assay; type: functional, cell-based; details: U-266, 48 h
[2] = test system: U-937; test: Antiproliferative activity against human U-937 cells incubated for 48 hrs by MTS assay; type: functional, cell-based; details: U-937, 48 h
[3] = test system: K562; test: Antiproliferative activity against human K562 cells incubated for 48 hrs by MTS assay; type: functional, cell-based; details: K562, 48 h
[4] = test system: OCI-AML2; test: Antiproliferative activity against human OCI-AML2 cells incubated for 48 hrs by MTS assay; type: functional, cell-based; details: OCI-AML2, 48 h
[5] = biological target: Eukaryotic peptide chain release factor GTP-binding subunit ERF3A (Homo sapiens) (UniProt P15170); test: Induction of GSPT1 degradation in human OCI-AML2 cells at 10 uM incubated for 8 hrs by Western blotting analysis; type: cell-based
Sequence of Eukaryotic peptide chain release factor GTP-binding subunit ERF3A (Homo sapiens) (P15170 whole entry): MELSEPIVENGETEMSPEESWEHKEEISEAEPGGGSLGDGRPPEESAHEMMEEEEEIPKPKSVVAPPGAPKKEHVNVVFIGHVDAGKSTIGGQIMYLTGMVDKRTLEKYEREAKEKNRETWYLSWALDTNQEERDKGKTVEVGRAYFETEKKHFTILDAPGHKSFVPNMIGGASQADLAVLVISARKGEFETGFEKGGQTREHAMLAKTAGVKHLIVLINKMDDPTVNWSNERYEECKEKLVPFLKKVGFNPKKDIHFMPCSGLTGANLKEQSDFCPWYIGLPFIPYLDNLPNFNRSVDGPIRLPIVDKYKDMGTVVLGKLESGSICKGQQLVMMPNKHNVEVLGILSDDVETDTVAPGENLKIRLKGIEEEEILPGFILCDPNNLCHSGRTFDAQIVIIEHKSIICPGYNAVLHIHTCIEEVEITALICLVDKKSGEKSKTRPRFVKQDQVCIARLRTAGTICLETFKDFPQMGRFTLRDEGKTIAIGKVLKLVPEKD

[6] = biological target: Eukaryotic peptide chain release factor GTP-binding subunit ERF3A (Homo sapiens) (UniProt P15170); test: Induction of GSPT1 degradation in human U-937 cells at 10 uM incubated for 8 hrs by Western blotting analysis; type: cell-based
[7] = test system: U-937; test: Downregulation of GSPT1 in human U-937 cells incubated for 8 hrs by Western blotting analysis; type: functional, cell-based; details: dose 5-40 µM
[8] = test system: U-937; test: Downregulation of IKZF1 in human U-937 cells incubated for 8 hrs by Western blotting analysis; type: functional, cell-based; details: dose 5-40 µM
[9] = test system: U-937; test: Downregulation of CK1alpha in human U-937 cells incubated for 8 hrs by Western blotting analysis; type: functional, cell-based; details: dose 5-40 µM
[10] = test system: OCI-AML2; test: Downregulation of GSPT1 in human OCI-AML2 cells incubated for 8 hrs by Western blotting analysis; type: functional, cell-based; details: dose 5-40 µM
[11] = test system: OCI-AML2; test: Downregulation of IKZF1 in human OCI-AML2 cells incubated for 8 hrs by Western blotting analysis; type: functional, cell-based; details: dose 5-40 µM
[12] = test system: OCI-AML2; test: Downregulation of CK1alpha in human OCI-AML2 cells incubated for 8 hrs by Western blotting analysis; type: functional, cell-based; details: dose 5-40 µM

Cc1nc2c(C)cccc2cc1C(=O)N/N=C/c1ccccc1
pIC50 [1]: 4.99 | pIC50 [2]: 4.78 | pIC50 [3]: 4.43 | pIC50 [4]: 4.96

Cc1nc2c(C)cccc2cc1C(=O)N/N=C/c1cccnc1
pIC50 [1]: 4.58 | pIC50 [2]: < 4.40 | pIC50 [3]: < 4.40 | pIC50 [4]: 4.81

Cc1nc2c(C)cccc2cc1C(=O)N/N=C/c1cccc(O)c1
pIC50 [1]: 4.75 | pIC50 [2]: 4.65 | pIC50 [3]: 4.71 | pIC50 [4]: 4.77 | Activity [5]: Active | Activity [6]: Active | Activity [7]: Dose-Dependent Effect | Activity [8]: Dose-Dependent Effect | Activity [9]: Dose-Dependent Effect | Activity [10]: Dose-Dependent Effect | Activity [11]: Dose-Dependent Effect | Activity [12]: Dose-Dependent Effect

Cc1nc2ccccc2cc1C(=O)N/N=C/c1cccc(Cl)c1
pIC50 [1]: < 4.40 | pIC50 [2]: < 4.40 | pIC50 [3]: < 4.40 | pIC50 [4]: < 4.40

Cc1ccc2nc(C)c(C(=O)N/N=C/c3cccc(Cl)c3)cc2c1
pIC50 [1]: < 4.40 | pIC50 [2]: < 4.40 | pIC50 [3]: < 4.40 | pIC50 [4]: < 4.40

Cc1nc2c(C)cccc2cc1C(=O)N/N=C/c1cccc([N+](=O)[O-])c1
pIC50 [1]: 5.15 | pIC50 [2]: 5.00 | pIC50 [3]: 4.89 | pIC50 [4]: 5.57

Cc1nc2c(C)cccc2cc1C(=O)N/N=C/c1c(C)[nH]c2ccccc12
pIC50 [1]: 4.76 | pIC50 [2]: 4.70 | pIC50 [3]: 4.96 | pIC50 [4]: 4.98

COc1ccc2ccccc2c1/C=N/NC(=O)c1cc2cccc(C)c2nc1C
pIC50 [1]: < 4.40 | pIC50 [2]: < 4.40 | pIC50 [3]: < 4.40 | pIC50 [4]: < 4.40

Cc1nc2c(C)cccc2cc1C(=O)N/N=C/c1cccc(Cl)c1
pIC50 [1]: 5.51 | pIC50 [2]: 5.37 | pIC50 [3]: 5.00 | pIC50 [4]: 5.60
